Patent EP1914304A1 (priority 1998, dated 1999)

Tests used:
[1] = target: gmk/TK-fl fusion protein (murine guanylate kinase fused to the entire wild-type HSV-1 TK; pET23d:gmk/TK-fl) (UniProt P0DTH5+Q64520); conditions: Table X; purified from E. coli
[2] = target: gmk/TK-trunc fusion protein (murine guanylate kinase fused to wild-type HSV-1 TK without its first nine amino acids; pET23d:gmk/TK-trunc) (UniProt P0DTH5+Q64520); conditions: Table X; purified from E. coli
[3] = test system: rat C6 glioblastoma cells transfected with TK mutant SR39, subcutaneous tumor; assay: Mouse xenograft tumor model with prodrug treatment; type: in vivo, Nude mice; conditions: prodrug twice a day for 5 days from day 5; Figures 32-34
Method: (§1) Rat C6 glioblastoma cells were transfected with the stable expression vector pREP8D7:dualGFP as described above containing various TK mutants. […] Experiments were carried out to establish prodrug dosing levels for tumor ablation and efficacy of therapy. Nude mice (JAX Labs, Bar Harbor, Maine) were injected subcutaneously with 0.5 x10^6 transfected rat C6 cells. After 5 days, prodrugs (ACV and GCV) were administered twice a day for a further 5 days. Prodrug was given at either of two concentrations (shown as mg/kg). During this period and for an additional 6 days, tumor size was monitored by caliper measurement every other day. At the end of the period, mice were sacrificed and the tumors excised and weighed.

[4] = test system: rat C6 glioblastoma cells transfected with TK mutant 30, subcutaneous tumor; assay: Mouse xenograft tumor model with prodrug treatment; type: in vivo, Nude mice; conditions: prodrug twice a day for 5 days from day 5; Figures 32-34
Method: as §1

[5] = test system: rat C6 cells expressing gmk/TK-trunc fusion protein; assay: Ganciclovir dose response curve, fusion protein against wild-type TK; type: cell-based; conditions: Figure 31; fusion protein being the superior one
[6] = test system: Rat C6 cells expressing TK mutant 75; assay: Rat C6 kill curves with GCV and ACV; type: cell-based; conditions: Table VIII
Text: (§2) The seven mutants were subcloned into the mammalian expression vector, pREP8D7:dualGFP. This vector contains a constitutive metallothionin promoter, which drives the expression of green flourescent protein (GFP), and an RSV LTR promoter, which stimulated expression of the TK mutants. The vector also contains a histidinol resistance gene for selection of transformants. Purified vector DNA of these constructs was used to transfect BHK tk- cells by electroporation. The transfectants were selected by resistance to histidinol and sorted using FACS analysis for GFP expression. Pools of transfectants were then assayed for sensitivity to GCV or ACV over a range of prodrug doses. […] Table VIII illustrates the IC50 values from Rat C6 kill curves with the SR11, SR26, and SR39 mutants.

[7] = test system: Rat C6 cells expressing TK mutant 411; assay: Rat C6 kill curves with GCV and ACV; type: cell-based; conditions: Table VIII
Text: as §2

[8] = test system: Rat C6 cells expressing TK mutant SR11; assay: Rat C6 kill curves with GCV and ACV; type: cell-based; conditions: Table VIII
Text: as §2

[9] = test system: Rat C6 cells expressing TK mutant SR39; assay: Rat C6 kill curves with GCV and ACV; type: cell-based; conditions: Table VIII
Text: as §2

[10] = test system: Rat C6 cells expressing TK mutant 30; assay: Rat C6 kill curves with GCV and ACV; type: cell-based; conditions: Table VIII
Text: as §2

[11] = test system: Rat C6 cells expressing TK mutant SR26; assay: Rat C6 kill curves with GCV and ACV; type: cell-based; conditions: Table VIII
Text: as §2

[12] = test system: Rat C6 cells expressing wild-type TK; assay: Rat C6 kill curves with GCV and ACV; type: cell-based; conditions: Table VIII
Text: as §2

[13] = target: T1, HSV-1 thymidine kinase mutant 75 (LIF-ALL library, codons 159-161 and 168-170 randomized; pET23d:75) (Human herpesvirus 1, UniProt P0DTH5); conditions: Table V
T1 sequence (P0DTH5 1-376): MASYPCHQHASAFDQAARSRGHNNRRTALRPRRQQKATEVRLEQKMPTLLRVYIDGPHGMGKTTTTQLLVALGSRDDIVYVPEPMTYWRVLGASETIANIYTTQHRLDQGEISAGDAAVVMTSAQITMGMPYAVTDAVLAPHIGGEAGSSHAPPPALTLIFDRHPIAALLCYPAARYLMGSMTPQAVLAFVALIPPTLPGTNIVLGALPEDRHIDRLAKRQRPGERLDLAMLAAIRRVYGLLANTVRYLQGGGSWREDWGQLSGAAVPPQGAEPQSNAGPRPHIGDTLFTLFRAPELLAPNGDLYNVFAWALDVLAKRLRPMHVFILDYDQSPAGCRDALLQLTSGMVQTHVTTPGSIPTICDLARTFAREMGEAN
Method: The culture is incubated at 37°C overnight. The following day the 5ml culture is used to inoculate 1L M9ZB + cabenicillin at 20µg/ml and the culture allowed to grow at 37°C to OD600 0.1. At that point IPTG is added to 0.4mM and the culture incubated a further 3 hours. The cells are chilled on ice, pelleted by centrifugation and the pellets washed once in cell wash buffer (50mM Tris, pH 7.5, 5mM EDTA, 10% sucrose) prior to freezing the pellets at -70°C. The next day the cells are resuspended in 12ml Buffer 1 (50mM Tris, pH 7.5, 10% sucrose, 2mM DTT, 5mM EDTA, 1mM PMSF) and the volume split into two 13ml Oakridge ultracentrifuge tubes. 1ml Buffer 1 containing 3mg lysozyme is added to each tube and the tubes left on ice for 1 hr. […] The cleared supernatant is then aliquoted and frozen at -70°C.
The 1ml bed volume column is prepared by passing 10ml Buffer 1 followed by 10ml Absorption Buffer (50mM Tris, pH 7.5, 10% sucrose, 2mM DTT, 25mM MgAc2, 10mM ATP) over the column. Two ml of the cleared lysate is mixed with 2 ml of Absorption Buffer and passed through a 0.2µm filter. This mix is passed over the column 3 times. The column is washed with 5ml Absorption buffer three times and the 5ml fractions collected. […] The column is reactivated by loading on 10ml High Salt Buffer (50mM Tris, pH 7.5, 10% sucrose, 2mM DTT, 0.5M KCl) and 10ml 50mM Tris, pH 7.5. The column is stored in 50mM Tris pH 7.5 + 0.004% sodium azide. The extent of purification is monitored by Coomassie stained SDS:PAGE analysis and the concentration of purified protein determined using the BioRad Reagent (Bradford Reagent).
Km and Vmax values are determined from double reciprocal plots and kcat values are calculated using the equation Vmax = kcat [Eo] where [Eo] is the total enzyme concentration. The BioRad reagent was used to determine the total enzyme concentration of purified thymidine kinase enzymes.

[14] = test system: ts13 BHK tk- cells transfected with pCMV:75 (HSV-1 TK mutant 75); assay: Cell killing by GCV and ACV, Alamar Blue viability (ED50); type: cell-based, baby hamster; conditions: Mesocricetus auratus, 96 h; effective dose for 50% cell killing, after 4 days on nucleoside analog, pooled G418 resistant clones
Method: (§3) Briefly, the cell transfections are performed as follows. Approximately 5 x 10^5 ts13 BHK tk cells (ATCC CRL-1632) are plated on 100mm dishes in DMEM + 10% calf serum. For each transfection 1 µg of pSV2neo and 10µg of a pCMV construct (pCMV, pCMV:TK-wrong (HSVTK in the wrong orientation relative to the promoter), pCMV:HSVTK, pCMV:30, pCMV:75 or pCMV:132 DNA) in 0.25M CaCl2 are mixed with 0.5ml 2 x BBS (see Chen and Okayama) and preincubated at 37°C at 2.5% CO2 for […]. The CaCl2/DNA mix is added dropwise to the plates and mixed in well. After a 24 hour incubation at 37°C in a 2.5% CO2 wet incubator, the cells are rinsed twice with Dulbecco PBS minus Ca/Mg and fed with fresh DMEM + 10% calf serum. Plates are incubated at 37°C with 6% CO2. After 72 hours post-transfection the cells are split 1:3 and plated in DMEM + 10% calf serum containing G418 at 600µg/ml.
(§4) The cells are selected on G418 (600µg/ml) at 37°C for 17 days. […]. Approximately 30-40 clones are selected in this manner for each transfected DNA containing a tk gene in the correct orientation. The pCMV and pCMV:TK-wrong transfections yielded between 130 and 140 clones each. G418 resistant clones are harvested, pooled and plated at a density of 2000 cells/well in 100µl DMEM + 10% calf serum and 200µg/ml G418 + 6% CO2 in 96 well microtiter plates. […]. After three days in the presence of the nucleoside analog, Alamar Blue is added and 6 hours later the plates are scanned using a fluorometer as according to the manufacturer's protocol (Alamar Biosciences, Inc., Sacramento, CA). The plates are incubated a further 24 hours at 37°C and scanned again.
(§5) Determination of the fluorescence level of cells incubated in the presence of Alamar Blue directly relates to cell viability.

[15] = test system: ts13 BHK tk- cells transfected with pCMV:HSVTK (wild-type HSV-1 TK); assay: as above; type: cell-based, baby hamster; conditions: Mesocricetus auratus, 96 h; effective dose for 50% cell killing, after 4 days on nucleoside analog, pooled G418 resistant clones
Method: as §3, §4, §5

[16] = test system: ts13 BHK tk- cells transfected with pCMV:132 (HSV-1 TK mutant 132); assay: as above; type: cell-based, baby hamster; conditions: Mesocricetus auratus, 96 h; effective dose for 50% cell killing, after 4 days on nucleoside analog, pooled G418 resistant clones
Method: as §3, §4, §5

[17] = test system: ts13 BHK tk- cells transfected with pCMV:30 (HSV-1 TK mutant 30); assay: as above; type: cell-based, baby hamster; conditions: Mesocricetus auratus, 96 h; effective dose for 50% cell killing, after 4 days on nucleoside analog, pooled G418 resistant clones
Method: as §3, §4, §5

Structure (SMILES)	Km [1] [µM]	Km [2] [µM]	tumor reduction (tumor diameter, final tumor weight) [3]	tumor reduction (tumor diameter, final tumor weight) [4]	difference in IC50 between fusion protein and wild-type TK [5] [fold]	IC50 [6] [nM]	IC50 [7] [nM]	IC50 [8] [nM]	IC50 [9] [nM]	IC50 [10] [nM]	IC50 [11] [nM]	IC50 [12] [µM]	Km ([13]; double reciprocal plots) [µM]	kcat ([13]; per active site)	IC50 [14] [nM]	IC50 [15] [µM]	IC50 [16] [µM]	IC50 [17] [µM]
Nc1nc2c(ncn2[C@@H]2O[C@H](COP(=O)(O)O)[C@@H](O)[C@H]2O)c(=O)[nH]1 [GMP]	146	95	–	–	–	–	–	–	–	–	–	–	–	–	–	–	–	–
Nc1nc2c(ncn2[C@H]2C[C@H](O)[C@@H](COP(=O)(O)O)O2)c(=O)[nH]1 [dGMP]	359	218	–	–	–	–	–	–	–	–	–	–	–	–	–	–	–	–
Nc1nc(O)c2ncn(COC(CO)CO)c2n1 [ganciclovir]	–	–	significant tumor reduction	significant tumor reduction	100	> 1000	100	150	17	10	40	5	10	.050 s⁻¹	470	20	18	4.4
